The values below come from US20250074891A1 (Anaxis Pharma Pty Ltd., priority 2021, published 2025).

Common to all, as to conditions: Table 35
One assay has as its target MLKL (full length) (Homo sapiens (Human), UniProt Q8NB16). Nature of the assay: KINOMEscan binding assay, MLKL (full length). Here is the method: (§1) Kinase assays. For most assays, kinase-tagged T7 phage strains were grown in parallel in 24-well blocks in an E. coli host derived from the BL21 strain. E. coli were grown to log-phase and infected with T7 phage from a frozen stock (multiplicity of infection=0.4) and incubated with shaking at 32° C. until lysis (90-150 minutes).
(§2) The Hill Slope was set to −1.

Another assay concerns the target RIP1 (Homo sapiens (Human), UniProt Q13546). As to the kind of experiment: KINOMEscan binding assay, RIP1.
A further assay concerns the target RIP3 (Homo sapiens (Human), UniProt Q9Y572). Nature of the assay: KINOMEscan binding assay, RIP3. The method, then: as §1, §2

Chain of RIP3 (Q9Y572 whole entry): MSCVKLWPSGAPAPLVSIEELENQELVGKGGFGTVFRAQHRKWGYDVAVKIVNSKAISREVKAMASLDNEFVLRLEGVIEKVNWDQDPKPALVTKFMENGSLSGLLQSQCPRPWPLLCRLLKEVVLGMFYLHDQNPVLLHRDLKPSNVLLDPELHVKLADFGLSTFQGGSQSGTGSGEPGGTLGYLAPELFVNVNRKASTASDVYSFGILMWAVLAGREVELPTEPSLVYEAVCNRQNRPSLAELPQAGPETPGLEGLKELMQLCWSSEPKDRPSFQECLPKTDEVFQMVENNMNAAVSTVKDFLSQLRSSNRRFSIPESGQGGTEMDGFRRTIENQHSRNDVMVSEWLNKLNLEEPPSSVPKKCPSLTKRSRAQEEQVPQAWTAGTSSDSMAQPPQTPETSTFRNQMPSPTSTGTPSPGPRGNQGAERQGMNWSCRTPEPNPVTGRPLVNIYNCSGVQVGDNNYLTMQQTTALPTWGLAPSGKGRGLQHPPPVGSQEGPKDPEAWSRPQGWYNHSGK
Chain of RIP1 (Q13546 whole entry): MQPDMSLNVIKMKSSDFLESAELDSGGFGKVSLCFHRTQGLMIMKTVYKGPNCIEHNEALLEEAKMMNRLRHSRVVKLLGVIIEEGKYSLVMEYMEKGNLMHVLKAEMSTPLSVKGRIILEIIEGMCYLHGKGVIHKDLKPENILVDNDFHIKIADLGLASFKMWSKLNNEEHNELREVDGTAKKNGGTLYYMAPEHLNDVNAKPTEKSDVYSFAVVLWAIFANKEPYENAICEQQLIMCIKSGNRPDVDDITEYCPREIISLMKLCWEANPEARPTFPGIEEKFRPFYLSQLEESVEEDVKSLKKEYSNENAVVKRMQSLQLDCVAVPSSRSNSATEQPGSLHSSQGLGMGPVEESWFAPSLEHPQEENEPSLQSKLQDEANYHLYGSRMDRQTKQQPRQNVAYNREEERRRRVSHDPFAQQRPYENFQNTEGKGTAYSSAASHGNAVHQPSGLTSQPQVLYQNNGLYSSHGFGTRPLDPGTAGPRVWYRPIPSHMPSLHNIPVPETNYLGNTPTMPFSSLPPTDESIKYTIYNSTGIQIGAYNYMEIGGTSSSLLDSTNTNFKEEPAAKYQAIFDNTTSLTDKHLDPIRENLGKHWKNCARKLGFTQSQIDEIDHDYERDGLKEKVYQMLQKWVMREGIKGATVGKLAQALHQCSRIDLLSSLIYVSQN
Chain of MLKL (full length) (Q8NB16 whole entry): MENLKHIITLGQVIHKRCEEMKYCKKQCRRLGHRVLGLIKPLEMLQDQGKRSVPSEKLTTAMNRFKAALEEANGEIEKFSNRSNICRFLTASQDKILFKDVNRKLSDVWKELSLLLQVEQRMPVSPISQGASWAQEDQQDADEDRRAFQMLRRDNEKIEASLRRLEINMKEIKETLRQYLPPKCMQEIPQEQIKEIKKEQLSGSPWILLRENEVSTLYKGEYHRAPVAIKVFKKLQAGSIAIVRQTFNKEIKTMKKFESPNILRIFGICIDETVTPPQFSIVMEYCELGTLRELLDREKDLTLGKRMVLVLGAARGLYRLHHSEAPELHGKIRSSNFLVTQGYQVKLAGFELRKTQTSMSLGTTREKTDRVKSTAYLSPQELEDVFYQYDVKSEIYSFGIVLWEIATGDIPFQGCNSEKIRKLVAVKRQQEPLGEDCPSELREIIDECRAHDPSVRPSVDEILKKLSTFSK

In the case of `CCS(=O)(=O)Nc1ccc(-c2n[nH]c(Nc3cnccn3)c2C(N)=O)cc1OCc1ccc(Cl)cn1` [Compound 242, 3-{3-[(5-chloropyridin-2-yl)methoxy]-4-ethanesulfonamidophenyl}-5-[(pyrazin-2-yl)amino]-1H-pyrazole-4-carboxamide], the Kd (usually the constant that tells how readily two partners part at equilibrium) is < 0.01 µM on MLKL (full length), > 30 µM on RIP1 and > 30 µM on RIP3.

Consider `Cc1cnc(Nc2[nH]nc(-c3ccc(NS(=O)(=O)C(F)F)c(O[C@@H](C)c4ccc(F)cc4)c3)c2C(N)=O)cn1` [Compound 245, 3-[4-(difluoro-methanesulfon-amido)-3-[(1S)-1-(4-fluorophenyl)ethoxy]phenyl]-5-[(5-methylpyrazin-2-yl)amino]-1H-pyrazole-4-carboxamide], for which the Kd on MLKL (full length) was < 0.01 µM; on RIP1, > 30 µM; at RIP3 it was > 30 µM.

On to `NC(=O)c1c(-c2ccc(NS(=O)(=O)C(F)F)c(OCc3ccc(F)cc3)c2)n[nH]c1Nc1cnc(C(F)(F)F)cn1` [Compound 246, 3-[4-(difluoromethanesulfonamido)-3-[(4-fluorophenyl)methoxy]phenyl]-5-{[5-(trifluoromethyl)pyrazin-2-yl]amino}-1H-pyrazole-4-carboxamide], for which the Kd is < 0.01 µM on MLKL (full length), > 30 µM at RIP1 and > 30 µM at RIP3.

In the case of `C[C@H](Oc1cc(-c2n[nH]c(Nc3cccc(C(F)(F)F)n3)c2C(N)=O)ccc1NS(=O)(=O)CC(F)(F)F)c1ccc(F)cc1` [Compound 249, 3-{3-[(1S)-1-(4-fluorophenyl)ethoxy]-4-(2,2,2-trifluoroethane-sulfonamido)phenyl}-5-{[6-(trifluoromethyl)pyridin-2-yl]amino}-1H-pyrazole-4-carboxamide], the dissociation constant Kd at MLKL (full length) is < 0.01 µM; on RIP1 it was > 30 µM; on RIP3, > 30 µM.

As for `C[C@H](Oc1cc(-c2n[nH]c(Nc3cnccn3)c2C(N)=O)ccc1NS(=O)(=O)C(F)F)c1ccc(Cl)cc1` [Compound 252, 3-{3-[(1S)-1-(4-chlorophenyl)ethoxy]-4-(difluoromethanesulfonamido)phenyl}-5-[(pyrazin-2-yl)amino]-1H-pyrazole-4-carboxamide], the Kd at MLKL (full length) is < 0.01 µM; on RIP1, > 30 µM; on RIP3, > 30 µM.

As for `C[C@H](Oc1cc(-c2c(C(N)=O)c(Nc3cnccn3)nn2C)ccc1NS(=O)(=O)C(F)F)c1ccc(F)cc1` [Compound 253, 5-[4-(difluoromethanesulfonamido)-3-[(1S)-1-(4-fluorophenyl)ethoxy]phenyl]-1-methyl-3-[(pyrazin-2-yl)amino]-1H-pyrazole-4-carboxamide], the results for the Kd at MLKL (full length), on RIP1 and on RIP3 were < 0.01 µM, > 30 µM and > 30 µM, respectively.

Consider `C[C@H](Oc1cc(-c2n[nH]c(Nc3cnccn3)c2C(N)=O)ccc1NS(=O)(=O)CC(F)(F)F)c1cccc(Cl)c1` [Compound 256, 3-{3-[(1S)-1-(3-chlorophenyl)ethoxy]-4-(2,2,2-trifluoroethane-sulfonamido)phenyl}-5-[(pyrazin-2-yl)amino]-1H-pyrazole-4-carboxamide], for which the Kd at MLKL (full length) is < 0.01 µM; at RIP1, > 30 µM; on RIP3 it was > 30 µM.

As for `NC(=O)c1cccc(Nc2[nH]nc(-c3ccc(NS(=O)(=O)C(F)F)cc3)c2C(N)=O)n1` [Compound 257, 6-({4-carbamoyl-3-[4-(difluoromethanesulfonamido)phenyl]-1H-pyrazol-5-yl}amino)pyridine-2-carboxamide], the values for the Kd at MLKL (full length), at RIP1 and at RIP3 were < 0.01 µM, > 30 µM and > 30 µM, respectively.

On to `N#Cc1cccc(Nc2[nH]nc(-c3ccc(NS(=O)(=O)C(F)F)cc3)c2C(N)=O)n1` [Compound 258, 5-[(6-cyanopyridin-2-yl)amino]-3-[4-(difluoromethanesulfonamido)phenyl]-1H-pyrazole-4-carboxamide], for which the Kd on MLKL (full length) is < 0.01 µM; at RIP1, > 30 µM; at RIP3, > 30 µM.

For `C[C@H](Oc1cc(-c2n[nH]c(Nc3cnccn3)c2C(N)=O)ccc1NS(=O)(=O)CC(F)(F)F)c1ccc(Cl)cc1` [Compound 259, 3-{3-[(1S)-1-(4-chlorophenyl)ethoxy]-4-(2,2,2-trifluoroethane-sulfonamido)phenyl}-5-[(pyrazin-2-yl)amino]-1H-pyrazole-4-carboxamide], the Kd at MLKL (full length) was < 0.01 µM; at RIP1, > 30 µM; at RIP3, > 30 µM.

In the case of `C[C@H](Oc1cc(-c2n[nH]c(Nc3ccccn3)c2C(N)=O)ccc1NS(=O)(=O)C(F)F)c1ccc(F)cc1` [Compound 260], the values for the Kd at MLKL (full length), on RIP1 and on RIP3 were < 0.01 µM, > 30 µM and > 30 µM, respectively.

In the case of `CCS(=O)(=O)Nc1ccc(-c2n[nH]c(Nc3cnccn3)c2C(N)=O)cc1OCc1ccccn1` [Compound 261, 3-{4-ethanesulfonamido-3-[(pyridin-2-yl)methoxy]phenyl}-5-[(pyrazin-2-yl)amino]-1H-pyrazole-4-carboxamide], the Kd is < 0.01 µM on MLKL (full length), > 30 µM on RIP1 and > 30 µM at RIP3.

For the compound `NC(=O)c1c(-c2ccc(NS(=O)(=O)CC(F)(F)F)c(OCc3ccc(Cl)cn3)c2)n[nH]c1Nc1cnccn1` [Compound 262, 3-{3-[(5-chloropyridin-2-yl)methoxy]-4-(2,2,2-trifluoroethane-sulfonamido)phenyl}-5-[(pyrazin-2-yl)amino]-1H-pyrazole-4-carboxamide], the Kd on MLKL (full length) was < 0.01 µM; at RIP1 it was > 30 µM; at RIP3, > 30 µM.

`Cc1cnc(Nc2[nH]nc(-c3ccc(NS(=O)(=O)CC(F)(F)F)c(O[C@@H](C)c4ccc(F)cc4)c3)c2C(N)=O)cn1` [Compound 264, 3-{3-[(1S)-1-(4-fluorophenyl)ethoxy]-4-(2,2,2-trifluoroethanesulfonamido)phenyl}-5-[(5-methylpyrazin-2-yl)amino]-1H-pyrazole-4-carboxamide]: the Kd at MLKL (full length) was < 0.01 µM; at RIP1, > 30 µM; on RIP3, > 30 µM.

As for `NC(=O)c1c(-c2ccc(NS(=O)(=O)CC(F)(F)F)c(OC(c3ccc(F)cc3)C3CCC3)c2)n[nH]c1Nc1cnccn1` (stereo not drawn) [Compound 266, 3-{3-[cyclobutyl(4-fluorophenyl)methoxy]-4-(2,2,2-trifluoroethanesulfonamido)phenyl}-5-[(pyrazin-2-yl)amino]-1H-pyrazole-4-carboxamide], the Kd was < 0.01 µM on MLKL (full length), > 30 µM at RIP1 and > 30 µM at RIP3.

Turning to `C[C@H](Oc1cc(-c2n[nH]c(Nc3cnccn3)c2C(N)=O)ccc1NS(=O)(=O)CC(F)(F)F)c1ccccn1` [Compound 267, 5-[(pyrazin-2-yl)amino]-3-{3-[(1S)-1-(pyridin-2-yl)ethoxy]-4-(2,2,2-trifluoroethanesulfonamido)phenyl]-1H-pyrazole-4-carboxamide], the Kd on MLKL (full length) is < 0.01 µM; at RIP1, > 30 µM; at RIP3, > 30 µM.

As for `NC(=O)c1c(-c2ccc(NS(=O)(=O)CC(F)(F)F)cc2)n[nH]c1Nc1ccccn1` [Compound 268, 5-[(pyridin-2-yl)amino]-3-[4-(2,2,2-trifluoroethanesulfonamido)phenyl]-1H-pyrazole-4-carboxamide], the Kd is < 0.01 µM at MLKL (full length), > 30 µM on RIP1 and > 30 µM at RIP3.

Turning to `NC(=O)c1c(-c2ccc(NS(=O)(=O)CC(F)(F)F)c(OCc3ccc(Cl)cc3)c2)n[nH]c1Nc1ccccn1` [Compound 269, 3-{3-[(4-chlorophenyl)methoxy]-4-(2,2,2-trifluoroethanesulfonamido)phenyl}-5-[(pyridin-2-yl)amino]-1H-pyrazole-4-carboxamide], the values for the Kd on MLKL (full length), at RIP1 and on RIP3 were < 0.01 µM, > 30 µM and > 30 µM, respectively.

For `Cc1nn(C)cc1Nc1[nH]nc(-c2ccc(NS(=O)(=O)C(F)F)c(O[C@@H](C)c3ccc(F)cc3)c2)c1C(N)=O` [Compound 270, (S)-3-(4-((difluoromethyl)sulfonamido)-3-(1-(4-fluorophenyl)ethoxy)phenyl)-5-((1,3-dimethyl-1H-pyrazol-4-yl)amino)-1H-pyrazole-4-carboxamide], the results for the Kd on MLKL (full length), at RIP1 and on RIP3 were < 0.01 µM, > 30 µM and > 30 µM, respectively.

In the case of `C[C@@H](Oc1cc(-c2n[nH]c(Nc3cnccn3)c2C(N)=O)ccc1NS(=O)(=O)C(F)F)c1ccc(F)cc1` [Compound 271, (R)-3-(4-((difluoro-methyl)sulfon-amido)-3-(1-(4-fluorophenyl)ethoxy)phenyl)-5-(pyrazin-2-ylamino)-1H-pyrazole-4-carboxamide], the Kd on MLKL (full length) is < 0.01 µM; on RIP1, > 30 µM; on RIP3 it was > 30 µM.

Take `CCc1cc(Nc2[nH]nc(-c3ccc(NS(=O)(=O)C(F)F)c(O[C@@H](C)c4ccc(F)cc4)c3)c2C(N)=O)no1` [Compound 274, (S)-3-(4-((difluoromethyl)sulfonamido)-3-(1-(4-fluorophenyl)ethoxy)phenyl)-5-((5-ethylisoxazol-3-yl)amino)-1H-pyrazole-4-carboxamide]: the Kd on MLKL (full length) was < 0.01 µM; at RIP1, > 30 µM; at RIP3 it was > 30 µM.

In the case of `NC(=O)c1c(-c2ccc(NS(=O)(=O)C(F)F)c(OCc3nccs3)c2)n[nH]c1Nc1cnccn1` [Compound 275, 3-(4-((difluoro-methyl)sulfon-amido)-3-(thiazol-2-ylmethoxy)phenyl)-5-(pyrazin-2-ylamino)-1H-pyrazole-4-carboxamide], the Kd on MLKL (full length) is < 0.01 µM; at RIP1, > 30 µM; on RIP3, > 30 µM.

As for `C[C@H](Oc1cc(-c2n[nH]c(Nc3cc(C4(C)CC4)on3)c2C(N)=O)ccc1NS(=O)(=O)C(F)F)c1ccc(F)cc1` [Compound 276, (S)-3-(4-((difluoromethyl)sulfonamido)-3-(1-(4-fluorophenyl)ethoxy)phenyl)-5-((5-(1-methylcyclopropyl)isoxazol-3-yl)amino)-1H-pyrazole-4-carboxamide], the Kd at MLKL (full length) is < 0.01 µM; at RIP1, > 30 µM; at RIP3, > 30 µM.
